Results reported in PubChem BioAssay (NCI).
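These data come from cells grown in 96-well plates and exposed to compound for 48 hours at five concentrations. Abbreviation: GI50, concentration required for 50% inhibition of growth. Definition used: TGI = concentration required for complete inhibition of growth.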

Legend:
Experiment in all cases: inhibition of tumour cell growth, NCI panel, 48 h
[1] = tested on: RXF-631 renal
[2] = tested on: XF 498 CNS
[3] = tested on: LXFL 529 NSCLC
[4] = tested on: SNB-78 CNS
[5] = tested on: KM20L2 colon
[6] = tested on: HOP-18 NSCLC
[7] = tested on: M19-MEL melanoma
[8] = tested on: DMS 114 small cell lung
[9] = tested on: MDA-N

Row | SMILES | TGI [1] [µM] | TGI [2] [µM] | TGI [3] [µM] | TGI [4] [µM] | TGI [5] [µM] | TGI [6] [µM] | TGI [7] [µM] | TGI [8] [µM] | TGI [9] [µM] | GI50 [5] [µM]
1 | COc1ccc(C2=NOP(c3ccccc3)(c3ccccc3)(c3ccccc3)C2)cc1 | > 100 | 49.7 | > 56.7 | > 100 | > 76.2 | > 100 | 57.7 | 26.2 | – | –
2 | O=C(Nc1cccc(C(F)(F)F)c1)c1cc(Br)cc(Br)c1O | – | – | – | – | – | – | – | – | > 10 | –
3 | C[N+](C)(C)CC1CCCC/C1=N\O (stereo not drawn) | > 100 | – | > 100 | > 100 | > 100 | > 100 | – | > 100 | – | –
4 | C#CCN(C)C(=O)N(CC#C)N=O | > 100 | – | > 100 | > 100 | > 100 | > 100 | > 100 | > 100 | – | –
5 | O=C1c2ccccc2-c2c1c1ccccc1c(=O)n2-c1ccccc1 | – | – | – | – | – | – | – | – | > 100 | –
6 | Nc1nc(N)c(-c2ccccc2)c(CCC(=O)Nc2ccc(Cl)cc2)n1 | – | – | > 100 | > 100 | > 100 | > 100 | > 100 | – | – | –
7 | CC(=O)O[C@H]1C=CC23OC(=O)[C@]1(C)[C@H]2[C@H](C(=O)O)C12CC(=O)[C@@](CO)(CC[C@H]13)C2 | > 100 | > 100 | > 100 | > 100 | > 100 | > 100 | > 100 | – | – | –
8 | OCC(O)C(OC1OC(CO)C(O)C(O)C1O)c1nn(-c2ccccc2)c2nc3cc(Cl)ccc3nc12 (stereo not drawn) | – | > 100 | > 100 | > 100 | > 100 | – | > 100 | > 100 | – | –
9 | Cc1ccc(S(=O)OC23CC4CC(CC(C4)C2)C3)cc1 (stereo not drawn) | > 100 | > 100 | > 100 | > 100 | > 100 | > 100 | > 100 | > 100 | – | –
10 | O=C(c1ccccc1)C1C(C(=O)c2ccccc2)C(c2ccccc2)N(c2ccccc2)C1c1ccccc1 (stereo not drawn) | – | – | – | – | – | – | – | – | > 100 | –
11 | N#Cc1c2c(c(-c3cccs3)n(C3OC(CO)C(O)C(O)C3O)c1=S)CCc1ccccc1-2 (stereo not drawn) | – | – | – | – | – | – | – | – | > 100 | –
12 | CC1=C(C(=O)Nc2ccccc2)C(c2ccc(C(C)C)cc2)C(C(=O)Nc2ccccc2)=C(C)N1 | > 85.1 | 27 | > 67.7 | > 100 | 31.7 | 49.3 | 35.6 | 47.5 | – | –
13 | Cn1cc(NC(=O)c2cc(NC(=O)CCCCCCC(=O)Nc3cc(C(=O)Nc4cc(C(=O)NCCC(=N)N)n(C)c4)n(C)c3)cn2C)cc1C(=O)NCCC(=N)N | – | 83 | 38.4 | 69.5 | > 100 | > 100 | 8.89 | 5.44 | – | –
14 | CCOC(=O)NC(=O)c1c[nH]c(=O)[nH]c1=O | > 100 | > 100 | > 100 | > 100 | > 100 | > 100 | > 100 | > 100 | – | –
15 | COC(=O)C1CC(C(=O)OC)c2nc3cc(C)c(C)cc3nc21 (stereo not drawn) | > 100 | > 100 | > 100 | > 100 | > 100 | > 100 | > 100 | > 100 | – | –
16 | Nc1ccc(C(=O)N/C(=C\c2cccc([N+](=O)[O-])c2)c2nc3c4c(ccc3[nH]2)C(=O)c2ccccc2C4=O)cc1 | > 100 | > 100 | > 100 | > 100 | > 100 | > 100 | > 100 | > 100 | – | –
17 | COc1cc([C@@H]2c3cc4c(cc3C[C@H]3COC(=O)[C@@H]32)OCO4)cc2c1OCO2 | – | – | – | – | – | – | – | – | < 0.01 | –
18 | C1C[OH+]CC[OH+]CC[OH+]CC[OH+]CC[OH+]CC[OH+]1.[Cl-].[Nb+5] | – | – | – | – | > 100 | – | – | – | – | > 100
